Laboratory results from patent US4191808A, “Method of measuring dipeptidyl-amino-peptidase activity” (Ajinomoto Co., Inc., priority 1975, dated 1980).
Peptide text beside a SMILES is read from it. * marks the point of attachment. pNA = O=[N+]([O-])c1ccc(N*)cc1

Experiments:
[1] = test system: purified human submaxillary enzyme (X-prolyl dipeptidyl-aminopeptidase); experiment: Direct photometric assay of substrate hydrolysis with purified human submaxillary enzyme; assay type: biochemical; settings: for Optimum pH: Tris-maleate, glycine-NaOH or amidiol buffer; for Relative enzyme activity (%) Purified human submaxillary enzyme pH 7.0: pH 7.0, 0.15 M Tris-maleate buffer, glycyl-L-proline p-nitroanilide = 100; for Km: pH 7.0, Tris-maleate buffer, mean of duplicate experiments
Protocol: (§1) 3mM substrate solutions were prepared as in Example 22, various dipeptide derivatives or salts thereof being used as substrates. The relative enzyme activities toward various substrates, and the rates and optimum pHs of hydrolysis of various substrates with the enzyme were measured as in Example 22.
^a Activities were measured in 0.15 M Trismaleate buffer at pH 5.6-8.
and in 0.15 M glycineNaOH buffer at pH 8.2-9.4, purified human
submaxillary enzyme being used. For Lalanyl-L-proline pnitroanilide,
amidiol buffer were used instead of glycine buffer, since glycine buffer
interfered the photometry at pH 9-10.
^b Km values were measured at 7.0 in Trismaleate buffer, purified
human submaxillary enzyme being used. The values are the mean of duplicat
(§2) ^c Activities were measured at pH 7.0 in 0.15 M Trismaleate buffer or
(§3) at pH 8.7 in 0.15 M glycineNaOH buffer. The values are the mean of
^d The purified enzyme was obtained by the following method; The
enzyme was solubilized from the microsomal fraction by autodigestion, and
subsequently purified by (NH4)2 SO4 fractionation followed
by Sephadex G200 chromatography.

[2] = molecular target: T1, X-prolyl dipeptidyl-aminopeptidase in human serum (Homo sapiens, UniProt P27487); experiment: Direct photometric assay of substrate hydrolysis (p-nitroaniline liberated, 385 nm) with human serum as enzyme source; assay type: biochemical; settings: for Enzyme activity (μmole/min/1 serum ± S.E.): 3 cases; for Relative enzyme activity (%) Human serum pH 7.0: pH 7.0, 0.15 M Tris-maleate buffer; for Relative enzyme activity (%) Human serum pH 7.0 / Relative enzyme activity (%) Human serum pH 8.7: glycyl-L-proline p-nitroanilide = 100; for Relative enzyme activity (%) Human serum pH 8.7: pH 8.7, 0.15 M glycine-NaOH buffer
T1 construct: Even if crude enzyme such as human serum is used as enzyme source, the activity is accurately measured; from tissue; host or cells: human serum (normal subjects and patients)
Protocol: The relation between the incubation time and the amount of substrate hydrolyzed was examined, glycyl-L-proline p-nitroanilide and human serum being used as substrate and enzyme source, respectively, and the assay of the substrate hydrolyzed was carried out by the following direct photometric method.
Glycyl-L-proline p-nitroanilide tosylate was dissolved in 2% non-ionic detergent (Nikkol NP-10; Nikko Chemicals, Osaka, Japan) aqueous solution in a concentration of 3 mM to prepare the substrate solution. The following four tubes were prepared:
(1) the experimental tube contained 0.5 ml of 0.15 M glycine-NaOH buffer (pH 8.7), 0.5 ml of the substrate solution, and 0.05 ml of human serum
(2) the blank tube contained 0.5 ml of the 0.15 M glycine-NaOH buffer, 0.5 ml of the substrate solution and 0.05 ml of water.
(3) the standard tube contained 0.5 ml of the buffer, 0.5 ml of the substrate and 0.05 ml of 3 mM p-nitroaniline aqueous solution.
(4) the control tube contained 0.5 ml of the buffer and 0.5 ml of the substrate.
All tubes were incubated at 37° C. for the periods listed in Table 1, and the reaction was stopped by the addition of 3.0 ml of 1M acetate buffer (pH 4.2) to every tube. To the control tube, 0.05 ml of the human serum was added after stopping the reaction. A photometer was adjusted to zero with the blank, and the absorbances of the experimental (E), control (C), and standard (S) were read at 385 nm in a cuvette with 1 cm light path. p-Nitroaniline liberated by the enzyme reaction was calculated by the equation [formula]
as §1, §2, §3
The activity of X-prolyl dipeptidyl-aminopeptidase was measured as in Example 22, glycyl-L-proline p-nitroanilide and 88 normal human sera being used as substrate and enzyme, respectively.
The activity of X-prolyl dipeptidyl-aminopeptidase was measured as in Example 22, glycyl-L-proline p-nitroanilide and human sera from patients being used as substrate and enzyme sources, respectively.
The activity of X-prolyl dipeptidyl-aminopeptidase was measured as in Example 22, various X-L-prolyl p-nitroanilides, and human sera from patients being used as substrates and enzyme sources, respectively.

[3] = molecular target: T1, X-prolyl dipeptidyl-aminopeptidase in human serum; experiment: Azo-coupling assay of substrate hydrolysis (548 nm) with human serum as enzyme source; assay type: biochemical; settings: 37° C., 30 minutes, pH 8.7
Protocol: The relation between the amount of enzyme and the amount of substrate hydrolyzed was examined, glycyl-L-proline p-nitroanilide tosylate and human serum being used as substrate and enzyme source, respectively, and the assay of the substrate hydrolyzed being carried out by the following azo-coupling method.
The following tubes were prepared: (1) the experimental tube contained 1.0 ml of 0.15 M glycine-NaOH buffer (pH 8.7), 1.0 ml of the substrate solution prepared in Example 22, and the volume listed in table 2 of human serum.
(2) the control tube contained 1.0 ml of the glycine-NaOH buffer, and 1.0 ml of the substrate solution.
Both experimental and control tubes were incubated at 37° C. for 30 minutes, and 0.1 ml of the serum was added to the control tube. The reaction was stopped by adding 0.4 ml of 30% perchloric acid aqueous solution. After centrifuging at 3000 rpm for 10 minutes, each 0.5 ml of the supernatant was transferred to another tube; besides 0.1 ml of […] p-nitroaniline aqueous solution and 2.4 ml of 30% perchloric acid solution were added to the standard tube, and 2.5 ml of the perchloric acid solution was added to the blank tube.
To all the four tubes, 0.5 ml of 0.2% sodium nitrite aqueous solution at 4° C., and they were kept at 4° C. for 10 minutes. Then, 0.5 ml of freshly prepared 0.5% ammonium sulfamate aqueous solution was added. After 2 minutes, 1.0 ml of 0.05% N-(1-naphthyl) ethylenediamine solution was added and the mixtures were incubated at 37° C. for 30 minutes in the dark.
A photometer was adjusted to zero with the blank, and the absorbances of the experimental (E), control (C), and standard (S) were read at 548 nm.
p-Nitroaniline formed enzymically was calculated by the equation: [formula] the volume of […] p-nitroaniline aqueous solution used in the standard tube (ml)).

[4] = Time for perfect dissolution in water with stirring; assay type: physicochemical; settings: 0.23 mg in 100 ml water with stirring
Protocol: 0.23 mg of crystalline glycyl-L-proline p-nitroanilide tosylate was dissolved in 100 ml water with stirring. It took ca. 30 minutes at 20° C. and ca. 18 minutes at 30° C. for perfect dissolution.
On the other hand, 0.23 mg of porous glycyl-L-proline p-nitroanilide tosylate, which was prepared by freezing […]. mole aqueous solution of the same at -40° C. and then drying the freezed solid at 0.05 mmHg, was dissolved in 100 ml water with stirring as in the above procedure. It only took ca. 10 seconds at 20° C. and ca. 5 seconds at 30° C. for perfect dissolution.

[5] = human sera from patients, Gastric Cancer
[6] = human sera from patients, Hepatitis

T1 sequence (P27487 39-766 limits assumed): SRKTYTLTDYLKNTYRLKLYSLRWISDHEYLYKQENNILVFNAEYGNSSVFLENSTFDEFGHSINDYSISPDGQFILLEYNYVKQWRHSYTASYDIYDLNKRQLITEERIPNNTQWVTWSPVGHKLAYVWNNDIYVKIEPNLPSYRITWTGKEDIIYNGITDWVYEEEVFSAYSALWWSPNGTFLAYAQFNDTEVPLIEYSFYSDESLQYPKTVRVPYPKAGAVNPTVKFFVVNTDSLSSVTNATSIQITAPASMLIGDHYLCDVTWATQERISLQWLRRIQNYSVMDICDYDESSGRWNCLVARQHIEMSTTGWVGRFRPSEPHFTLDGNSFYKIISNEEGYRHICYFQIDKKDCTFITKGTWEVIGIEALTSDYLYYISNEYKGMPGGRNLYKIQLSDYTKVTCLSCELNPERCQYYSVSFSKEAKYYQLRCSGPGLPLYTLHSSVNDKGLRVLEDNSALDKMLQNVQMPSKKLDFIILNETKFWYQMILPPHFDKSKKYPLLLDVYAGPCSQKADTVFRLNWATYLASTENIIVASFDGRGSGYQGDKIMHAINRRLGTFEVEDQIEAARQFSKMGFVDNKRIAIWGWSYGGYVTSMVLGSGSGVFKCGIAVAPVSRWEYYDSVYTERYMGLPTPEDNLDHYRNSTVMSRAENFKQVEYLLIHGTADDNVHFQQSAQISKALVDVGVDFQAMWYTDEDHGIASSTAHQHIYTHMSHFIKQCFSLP

Row | Structure (SMILES) | Optimum pH [1] | Relative enzyme activity (%) Purified human submaxillary enzyme pH 7.0 [1] [%] | Km [1] [µM] | Enzyme activity (μmole/min/1 serum ± S.E.) [2, 5] [μmole/min/1 serum] | Enzyme activity (μmole/min/1 serum ± S.E.) [2, 6] [μmole/min/1 serum] | Enzyme activity (μmole/min/1 serum ± S.E.) ([2]; human sera, Normal (control)) [μmole/min/1 serum] | Relative enzyme activity (%) Human serum pH 7.0 ([2]; human serum) [%] | Relative enzyme activity (%) Human serum pH 8.7 ([2]; human serum) [%] | also measured
1 | C[C@H](N)C(=O)N1CCC[C@H]1C(=O)Nc1ccc([N+](=O)[O-])cc1.Cl [L-alanyl-L-proline p-nitroanilide, L-Alanyl-L-proline p-nitroanilide hydrochloride] (H-Ala-Pro-pNA) | 8.5-8.7 | 86 | 14 | 18.5 ± 1.9 | 99.5 ± 17.0 | 36.6 ± 9.6 | 83 | 75 | –
2 | Cc1ccc(S(=O)(=O)O)cc1.Cc1ccc(S(=O)(=O)O)cc1.N=C(N)NCCC[C@H](N)C(=O)N1CCC[C@H]1C(=O)Nc1ccc([N+](=O)[O-])cc1 [L-arginyl-L-proline p-nitroanilide, L-Arginyl-L-proline p-nitroanilide ditosylate] (H-Arg-Pro-pNA) | 7.8-8.0 | 94 | 230 | 6.0 ± 0.7 | 35.5 ± 6.8 | 13.8 ± 3.6 | 86 | 55 | –
3 | N[C@@H](CC(=O)O)C(=O)N1CCC[C@H]1C(=O)Nc1ccc([N+](=O)[O-])cc1 [L-aspartyl-L-proline p-nitroanilide, L-Aspartyl-L-proline p-nitroanilide] (H-Asp-Pro-pNA) | 8.5-8.7 | 37 | 81 | 17.6 ± 1.6 | 102.5 ± 17.5 | 37.7 ± 9.0 | 34 | 28 | –
4 | N[C@@H](CCC(=O)O)C(=O)N1CCC[C@H]1C(=O)Nc1ccc([N+](=O)[O-])cc1 [L-glutamyl-L-proline p-nitroanilide, L-Glutamyl-L-proline p-nitroanilide] (H-Glu-Pro-pNA) | 8.5-8.7 | 58 | 23 | 13.9 ± 1.3 | 74.8 ± 17.6 | 27.5 ± 7.5 | 54 | 37 | –
5 | Cc1ccc(S(=O)(=O)O)cc1.Cc1ccc(S(=O)(=O)O)cc1.NCCCC[C@H](N)C(=O)N1CCC[C@H]1C(=O)Nc1ccc([N+](=O)[O-])cc1 [L-lysyl-L-proline p-nitroanilide, L-Lysyl-L-proline p-nitroanilide ditosylate] (H-Lys-Pro-pNA) | 8.5-8.7 | 121 | 120 | 8.2 ± 0.8 | 49.7 ± 10.2 | 18.2 ± 4.7 | 122 | 71 | –
6 | Br.O=C(Nc1ccc([N+](=O)[O-])cc1)[C@@H]1CCCN1 [L-proline p-nitroanilide, L-Proline p-nitroanilide hydrobromide, reference compound] | – | – | – | – | – | – | – | – | rate of hydrolysis by human serum, as % of hydrolysis of glycyl-L-proline p-nitroanilide ([2]; human serum): 0.7%
7 | Cc1ccc(S(=O)(=O)O)cc1.NCC(=O)N1CCC[C@H]1C(=O)Nc1ccc([N+](=O)[O-])cc1 [glycyl-L-proline p-nitroanilide tosylate, Glycyl-L-proline p-nitroanilide tosylate] (H-Gly-Pro-pNA) | – | – | – | – | – | – | – | – | Amount of p-nitroaniline formed ([3]; volume of serum 0.01 ml): 14.24 n mole; Amount of p-nitroaniline formed ([3]; volume of serum 0.02 ml): 32.91 n mole; Amount of p-nitroaniline formed ([3]; volume of serum 0.03 ml): 45.89 n mole; Amount of p-nitroaniline formed ([3]; volume of serum 0.04 ml): 62.50 n mole; Amount of p-nitroaniline formed ([3]; volume of serum 0.05 ml): 82.44 n mole; Amount of p-nitroaniline formed ([3]; volume of serum 0.10 ml): 155.06 n mole; time for perfect dissolution ([4]; 20° C., listed as crystalline glycyl-L-proline p-nitroanilide tosylate): ca. 30 minutes; time for perfect dissolution ([4]; 30° C., listed as crystalline glycyl-L-proline p-nitroanilide tosylate): ca. 18 minutes
8 | Cc1ccc(S(=O)(=O)O)cc1.NCC(=O)N1CCC[C@H]1C(=O)Nc1ccc([N+](=O)[O-])cc1 [glycyl-L-proline p-nitroanilide tosylate] (H-Gly-Pro-pNA) | – | – | – | – | – | – | – | – | time for perfect dissolution ([4]; 20° C., tosylate): ca. 10 seconds; time for perfect dissolution ([4]; 30° C., tosylate): ca. 5 seconds
